# Patent US20130217776A1, “Combination of a Serotonin Reuptake Inhibitor and Agomelatine” (H. Lundbeck A/S, priority 2003, published 2013)
# System: serotonin in terminal areas
# Assay: microdialysis experiments (level of serotonin in terminal areas)
# Assay type: in vivo
# Details: administration of agomelatine alone
# Description: Administration of agomelatine alone causes no increase in serotonin levels as measured in microdialysis experiments.
smiles,measurement,value
COc1ccc2cccc(CCNC(C)=O)c2c1 [agomelatine],serotonin levels as measured in microdialysis experiments,no increase
